Test results as given in patent US20090069408A1, “TRICYCLIC COMPOUNDS USEFUL IN TREATING IRON DISORDERS” (XENON PHARMACEUTICALS INC., priority 2007, published 2009).
Counter-ions that a name gives are not always drawn.

melting point | SMILES
> 230 °C | N=C(N)SCc1cccc2c1Oc1c(CSC(=N)N)cccc1S2 (as salt: hydrobromid) [Example 1.12, phenoxathiine-4,6-diylbis(methylene) dicarbamimidothioate dihydrobromide]
228 to 230 °C | N=C(N)SCc1cccc2sc3cccc(CSC(=N)N)c3c12 (as salt: hydrobromid) [Example 1.14, dibenzo[b,d]thiophene-1,9-diylbis(methylene) dicarbamimidothioate dihydrobromide]
218 to 220 °C | N=C(N)SCc1cccc2c1-c1c(CSC(=N)N)cccc1C2=O (as salt: hydrobromid) [Example 1.15, (9-oxo-9H-fluorene-4,5-diyl)bis(methylene) dicarbamimidothioate dihydrobromide]
> 230 °C | N=C(N)SCc1cccc2c(=O)c3cccc(CSC(=N)N)c3oc12 (as salt: hydrobromid) [Example 1.16, (9-oxo-9H-xanthene-4,5-diyl)bis(methylene) dicarbamimidothioate dihydrobromide]
> 270 °C (dec.) | Cc1c2cccc(CSC(=N)N)c2nc2c(CSC(=N)N)cccc12 (as salt: hydrobromid) [Example 1.17, (9-methylacridine-4,5-diyl)bis(methylene) dicarbamimidothioate dihydrobromide]
155 to 158 °C | N=C(N)SCc1cccc2c1-c1c(cccc1CSC(=N)N)CSC2 (as salt: hydrobromid) [Example 1.19, (5,7-dihydrodibenzo[c,e]thiepine-1,11-diyl)bis(methylene) dicarbamimidothioate dihydrobromide]
> 250 °C | N=C(N)SCc1cc(F)cc2c1-c1c(CSC(=N)N)cc(F)cc1-2 (as salt: hydrobromid) [Example 5, (3,6-difluorobiphenylene-1,8-diyl)bis(methylene) dicarbamimidothioate dihydrobromide]
